Results taken from paper PMC8803441, “Identification of 20(S)-Ginsenoside Rh2 as a Potential EGFR Tyrosine Kinase Inhibitor” (Oxidative Medicine and Cellular Longevity, 2022).

Target: T1, Epidermal growth factor receptor (EGFR) kinase (Homo sapiens, UniProt P00533)
T1 construct: EGFR protein (GST-tagged)
Assay: HTRF KinEASE-TK kinase assay with GST-tagged EGFR
Format: biochemical

T1 sequence (P00533 25-1210): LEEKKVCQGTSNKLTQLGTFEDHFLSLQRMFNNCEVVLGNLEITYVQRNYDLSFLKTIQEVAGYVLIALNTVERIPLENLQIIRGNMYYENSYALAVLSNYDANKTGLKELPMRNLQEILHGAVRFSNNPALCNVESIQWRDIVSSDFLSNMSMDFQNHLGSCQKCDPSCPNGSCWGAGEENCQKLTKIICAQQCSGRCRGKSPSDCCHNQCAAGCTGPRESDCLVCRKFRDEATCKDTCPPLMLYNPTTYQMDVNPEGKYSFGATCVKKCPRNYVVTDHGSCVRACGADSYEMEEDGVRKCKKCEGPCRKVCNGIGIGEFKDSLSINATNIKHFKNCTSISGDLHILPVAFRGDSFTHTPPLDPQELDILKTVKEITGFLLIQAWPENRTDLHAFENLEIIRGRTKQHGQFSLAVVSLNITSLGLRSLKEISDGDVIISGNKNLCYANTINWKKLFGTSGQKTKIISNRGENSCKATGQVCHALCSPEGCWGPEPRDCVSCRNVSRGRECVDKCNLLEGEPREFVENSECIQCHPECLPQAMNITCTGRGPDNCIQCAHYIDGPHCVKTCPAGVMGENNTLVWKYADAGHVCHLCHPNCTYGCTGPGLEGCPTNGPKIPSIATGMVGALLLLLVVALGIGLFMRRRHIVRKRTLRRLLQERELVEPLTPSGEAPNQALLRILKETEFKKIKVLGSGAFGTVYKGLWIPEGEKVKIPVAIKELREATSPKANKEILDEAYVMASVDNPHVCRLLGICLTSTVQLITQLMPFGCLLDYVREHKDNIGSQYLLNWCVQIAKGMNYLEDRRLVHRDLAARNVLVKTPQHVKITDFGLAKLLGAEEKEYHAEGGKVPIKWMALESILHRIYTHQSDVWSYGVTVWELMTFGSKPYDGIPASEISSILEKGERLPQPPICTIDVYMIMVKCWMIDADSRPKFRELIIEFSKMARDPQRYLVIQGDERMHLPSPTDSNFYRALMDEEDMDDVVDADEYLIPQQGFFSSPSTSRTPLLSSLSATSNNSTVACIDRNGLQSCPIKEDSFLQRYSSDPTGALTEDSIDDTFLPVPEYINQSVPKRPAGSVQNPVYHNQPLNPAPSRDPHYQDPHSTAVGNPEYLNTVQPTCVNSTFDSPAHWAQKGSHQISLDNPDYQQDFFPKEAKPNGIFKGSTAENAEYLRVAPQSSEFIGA

In the case of CC(C)=CCC[C@](C)(O)[C@H]1CC[C@]2(C)[C@@H]1[C@H](O)C[C@@H]1[C@@]3(C)CC[C@H](O[C@@H]4O[C@H](CO)[C@@H](O)[C@H](O)[C@H]4O)C(C)(C)[C@@H]3CC[C@]12C [20(S)-ginsenoside Rh2], the IC50 is reported as 2.78 ± 0.16 µM.
